Biological target: T1, Dihydroorotate dehydrogenase (quinone), mitochondrial (Plasmodium falciparum (isolate 3D7), UniProt Q08210)
T1 sequence (Q08210 whole entry): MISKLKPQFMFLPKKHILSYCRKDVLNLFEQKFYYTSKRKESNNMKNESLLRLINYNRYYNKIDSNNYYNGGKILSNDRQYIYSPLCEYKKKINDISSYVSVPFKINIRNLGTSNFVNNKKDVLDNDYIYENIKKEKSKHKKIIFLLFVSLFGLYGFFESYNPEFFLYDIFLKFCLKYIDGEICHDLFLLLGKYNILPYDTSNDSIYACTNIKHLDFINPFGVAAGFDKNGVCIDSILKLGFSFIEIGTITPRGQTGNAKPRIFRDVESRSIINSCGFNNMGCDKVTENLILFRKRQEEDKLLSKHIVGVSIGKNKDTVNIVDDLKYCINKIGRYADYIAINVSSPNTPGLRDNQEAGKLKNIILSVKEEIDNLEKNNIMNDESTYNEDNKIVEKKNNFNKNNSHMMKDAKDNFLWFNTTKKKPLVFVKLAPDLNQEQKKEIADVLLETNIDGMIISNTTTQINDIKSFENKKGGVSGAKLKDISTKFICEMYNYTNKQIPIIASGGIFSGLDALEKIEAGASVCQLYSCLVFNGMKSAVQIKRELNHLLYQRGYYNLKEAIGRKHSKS
Experiment: DHODH Inhibition Assay
Conditions: pH 8; 20 °C
Procedure: The assays were carried out by using a colorimetric DCIP method, which uses the colorimetric reagent 2, 6-dichlorophenolindophenol as the final electron acceptor. DCIP reduction is stoichiometrically equivalent to oxidation of dihydroorotate. Changes in absorbance were quantified on a plate reader and data were analyzed to measure the reduction of DCIP as a decrease in absorbance at 600 nm.

IC50 | Compound
> 100 µM | Cc1cc(Nc2ccccc2)n2ncnc2n1 [JMC521864 Compund DSM12]
> 200 µM | Cc1cc(Nc2ccc(C(N)=O)cc2)n2ncnc2n1 [4-({5-methyl-[1,2,4]triazolo[1,5-a]pyrimidin-7-yl}amino)benzamide]

Source: BindingDB's records for doi:10.1021/jm8001026 (University of Texas At Dallas, 2008)
